Source: patent US10272126B2, “Nanoparticle-stabilized microcapsules, dispersions comprising nanoparticle-stabilized microcapsules, and method for the treatment of bacterial biofilms” (The University of Massachusetts, priority 2015, dated 2019)

System: NIH 3T3 fibroblast cells
Assay: Biofilm-3T3 fibroblast co-culture: mammalian cell viability (LDH cytotoxicity assay)
Assay type: cell-based
From the text: Scatters and lines represent 3T3 fibroblast cell viability. Bars represent log10 of colony forming units in biofilms. The data are average of triplicates and the error bars indicate the standard deviations.
Biofilm infections within wounds interfere with the ability of the host to regenerate damaged tissue. See, e.g., Roy, S.; Elgharably, H.; Sinha, M.; Ganesh, K.; Chaney, S.; Mann, E.; Miller, C.; Khanna, S.; Bergdall, V. K.; Powell, H. M.; et al. Mixed-Species Biofilm Compromises Wound Healing by Disrupting Epidermal Barrier Function. J. Pathol. 2014, 233, 331-343. […] The co-cultures were treated with capsules for 3 hours, washed, and the viabilities of both fibroblasts and bacteria were measured. […]
Testing solutions at different concentrations were made by diluting capsules into DMEM prior to use. […] Co-cultures were then analyzed using a LDH cytotoxicity assay to determine mammalian cell viability according the manufacturer's instructions. See, e.g., Decker, T.; Lohmann-Matthes, M. L. A Quick and Simple Method for the Quantitation of Lactate Dehydrogenase Release in Measurements of Cellular Cytotoxicity and Tumor Necrosis Factor (TNF) Activity. […] The solutions containing dispersed bacteria were then plated onto agar plates and colony forming units were counted after incubation at 37° C. overnight.

peppermint oil
3T3 fibroblast cell viability in co-culture: toxic effects
